Measurements as given in ChEMBL document CHEMBL1165963, “Bryonolic acid: a large-scale isolation and evaluation of heme oxygenase 1 expression in activated macrophages” (2010).
The source made the active and inactive calls. The calls are words filed in the database; no cut-off is given here.

Columns and labels:
[1] = tested on: RAW264.7; test: Immunomodulatory effect in LPS-stimulated mouse RAW264.7 cells assessed as increase in heme oxygenase 1 expression after 24 hrs by Western blot; type: functional, cell-based
[2] = tested on: RAW264.7; test: Immunomodulatory effect in LPS-stimulated mouse RAW264.7 cells assessed as increase in heme oxygenase 1 expression at 100 uM after 24 hrs by Western blot relative to untreated control; type: functional
[3] = tested on: RAW264.7; test: Immunomodulatory effect in LPS-stimulated mouse RAW264.7 cells assessed as increase in heme oxygenase 1 expression at 50 uM after 24 hrs by Western blot relative to LPS; type: functional
[4] = tested on: RAW264.7; test: Immunomodulatory effect in LPS-stimulated mouse RAW264.7 cells assessed as increase in heme oxygenase 1 expression at 50 uM after 24 hrs by Western blot relative to untreated control; type: functional
[5] = tested on: RAW264.7; test: Effect on COX2 expression in mouse RAW264.7 cells after 24 hrs by Western blot; type: functional, cell-based
[6] = tested on: RAW264.7; test: Effect on iNOS expression in mouse RAW264.7 cells after 24 hrs by Western blot; type: functional, cell-based
[7] = tested on: RAW264.7; test: Immunomodulatory effect in LPS-stimulated mouse RAW264.7 cells assessed as increase in heme oxygenase 1 expression at 100 uM after 24 hrs by Western blot relative to LPS; type: functional

SMILES: CC1(C)[C@@H](O)CC[C@]2(C)C3=C(CC[C@@H]12)[C@@]1(C)CC[C@@]2(C)CC[C@@](C)(C(=O)O)C[C@H]2[C@]1(C)CC3 [BRYONOLIC ACID]
- Activity [1]: Dose-dependent effect
- fold change (FC) [2]: 55
- fold change (FC) [3]: 3.3
- fold change (FC) [4]: 13
- Activity [5]: inactive
- Activity [6]: inactive
- fold change (FC) [7]: 14
